Target: T1, IRAK4 (Homo sapiens, UniProt Q9NWZ3)
T1 construct: expression of target proteins in cells; endogenous in cells
T1 sequence (Q9NWZ3 1-460): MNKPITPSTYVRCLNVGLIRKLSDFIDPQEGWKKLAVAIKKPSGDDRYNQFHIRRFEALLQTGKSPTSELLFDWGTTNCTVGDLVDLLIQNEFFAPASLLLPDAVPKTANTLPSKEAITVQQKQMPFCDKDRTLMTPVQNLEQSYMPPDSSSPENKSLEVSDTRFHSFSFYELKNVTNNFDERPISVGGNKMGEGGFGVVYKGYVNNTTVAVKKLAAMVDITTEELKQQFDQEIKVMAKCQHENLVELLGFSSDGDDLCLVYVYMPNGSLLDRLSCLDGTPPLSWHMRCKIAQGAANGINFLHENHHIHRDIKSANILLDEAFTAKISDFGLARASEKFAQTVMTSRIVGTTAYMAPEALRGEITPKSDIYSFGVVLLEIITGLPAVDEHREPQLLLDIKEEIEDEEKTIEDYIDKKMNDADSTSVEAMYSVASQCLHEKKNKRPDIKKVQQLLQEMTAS
Test: Western blot degradation of IRAK4
Type: cell-based
Conditions: hPBMC Cell; 24 hours
Description: Conventional Western blot assay was performed to evaluate the effects of the compounds of the present disclosure on the expression of target proteins in cells.
(1) Cell Seeding and Protein Harvesting: The selected cells were processed according to the cell seeding procedure and protein harvesting procedure in Table II-2.
(2) To the collected supernatant, 5×SDS sample loading buffer was added, followed by denaturation at 95 °C for 5 minutes. The denatured samples were then separated by SDS-PAGE electrophoresis on a polyacrylamide gel. Proteins were transferred to a nitrocellulose membrane (0.45 μm NC membrane), blocked with blocking buffer at room temperature for 1 hour, and subjected to antibody incubation and development procedures according to the antibody manufacturer's instructions (Cell Signaling Technology).
Half-Maximal Degradation Concentration value (the drug concentration required for degrading proteins by 50%, abbreviated as DC50) reads method: comparing the grayscale values of Western blot bands from drug-treated samples with those from blank DMSO-treated controls, and identifying the drug concentration range at which the grayscale value is half that of the DMSO-treated control bands.
DC50 values can be calculated using ImageJ software to measure grayscale values of Western blot bands from drug-treated samples. The concentration-response curve is fitted to estimate the drug concentration corresponding to half the grayscale value.
Target protein remaining (%) refers to the percentage of target protein remaining in cells after treatment with protein degrader compounds.
Calculation method for target protein remaining (%): Use ImageJ software to measure grayscale values of Western blot bands from drug (protein degrader)-treated samples. The grayscale value of drug-treated bands is divided by that of internal control protein bands, and the resulting quotient is normalized to obtain the relative percentage of remaining target protein after protein degrader treatment.
Target protein degradation rate (%)=1−target protein remaining (%).

Row | Degradation of substrate protein IRAK4 (substrate protein remaining %) | Structure (SMILES)
1 | A (0%≤substrate protein remaining %≤80%) | CC(C)(O)c1cc2nn(C3CCN(CC4CCN(C5CCN(c6ccc7c(c6)C(=O)N(N6CCC(=O)NC6=O)C7=O)CC5)CC4)CC3)cc2cc1NC(=O)c1cccc(C(F)(F)F)n1 [GT-05290, N-(2-(1-((1′-(2-(2,4-dioxotetrahydropyrimidin-1(2H)-yl)-1,3-dioxoisoindolin-5-yl)-[1,4′-bipiperidin]-4-yl)methyl)piperidin-4-yl)-6-(2-hydroxypropan-2-yl)-2H-indazol-5-yl)-6-(trifluoromethyl) picolinamide]
2 | A (0%≤substrate protein remaining %≤80%) | CC(C)Nc1cc(-n2ccc3cc(C#N)cnc32)ncc1C(=O)NC1CCN(Cc2ccc3c(c2)C(=O)N(N2CCC(=O)NC2=O)C3=O)CC1 [GT-05326, 6-(5-cyano-1H-pyrrolo[2,3-b]pyridin-1-yl)-N-(1-((2-(2,4-dioxotetrahydropyrimidin-1(2H)-yl)-1,3-dioxoisoindolin-5-yl)methyl)piperidin-4-yl)-4-((isopropyl)amino) nicotinamide]
3 | A (0%≤substrate protein remaining %≤80%) | CC(C)Nc1cc(-n2ccc3cc(C#N)cnc32)ncc1C(=O)NC1CCN(CC2CCN(c3ccc4c(c3)C(=O)N(N3CCC(=O)NC3=O)C4=O)CC2)CC1 [GT-05813, 6-(5-cyano-1H-pyrrolo[2,3-b]pyridin-1-yl)-N-(1-((1-(2-(2,4-dioxotetrahydropyrimidin-1(2H)-yl)-1,3-dioxoisoindolin-5-yl)piperidin-4-yl)methyl)piperidin-4-yl)-4-(isopropylamino) nicotinamide]
4 | A (0%≤substrate protein remaining %≤80%) | CC(C)Nc1cc(-n2ccc3cc(C#N)cnc32)ncc1C(=O)NC1CCN(CC2CCN(c3cccc4c3C(=O)N(N3CCC(=O)NC3=O)C4=O)CC2)CC1 [GT-05814, 6-(5-cyano-1H-pyrrolo[2,3-b]pyridin-1-yl)-N-(1-((1-(2-(2,4-dioxotetrahydropyrimidin-1(2H)-yl)-1,3-dioxoisoindolin-4-yl)piperidin-4-yl)methyl)piperidin-4-yl)-4-(isopropylamino) nicotinamide]
5 | A (0%≤substrate protein remaining %≤80%) | COc1cc2nn(C3CCN(CC4CCN(c5cccc6c5C(=O)N(N5CCC(=O)NC5=O)C6=O)CC4)CC3)cc2cc1NC(=O)c1cccc(C(F)(F)F)c1 [GT-05815, N-(2-(1-((1-(2-(2,4-dioxotetrahydropyrimidin-1(2H)-yl)-1,3-dioxoisoindolin-4-yl)piperidin-4-yl)methyl)piperidin-4-yl)-6-methoxy-2H-indazol-5-yl)-3-(trifluoromethyl)benzamide]
6 | A (0%≤substrate protein remaining %≤80%) | O=C1CCN(N2C(=O)c3ccc(N4CC5CC(C4)N5C[C@H]4CC[C@H](n5cc(NC(=O)c6cnn7ccc(N8C[C@H]9C[C@@H]8CO9)nc67)c(C(F)F)n5)CC4)cc3C2=O)C(=O)N1 [GT-05822, 5-((1R,4R)-2-oxa-5-azabicyclo[2.2.1]heptan-5-yl)-N-(3-(difluoromethyl)-1-((1r,4R)-4-((3-(2-(2,4-dioxotetrahydropyrimidin-1(2H)-yl)-1,3-dioxoisoindolin-5-yl)-3,6-diazabicyclo[3.1.1]heptan-6-yl)methyl)cyclohexyl)-1H-pyrazol-4-yl)pyrazolo[1,5-a]pyrimidine-3-carboxamide]
7 | A (0%≤substrate protein remaining %≤80%) | O=C1CCN(N2C(=O)c3ccc(N4CCN(C[C@H]5CC[C@H](n6cc(NC(=O)c7cnn8ccc(N9C[C@H]%10C[C@@H]9CO%10)nc78)c(C(F)F)n6)CC5)CC4)c(F)c3C2=O)C(=O)N1 [GT-05827, 5-((1R,4R)-2-oxa-5-azabicyclo[2.2.1]heptan-5-yl)-N-(3-(difluoromethyl)-1-((1r,4R)-4-((4-(2-(2,4-dioxotetrahydropyrimidin-1(2H)-yl)-4-fluoro-1,3-dioxoisoindolin-5-yl)piperazin-1-yl)methyl)cyclohexyl)-1H-pyrazol-4-yl)pyrazolo[1,5-a]pyrimidine-3-carboxamide]
8 | A (0%≤substrate protein remaining %≤80%) | COc1cc2nn([C@H]3CC[C@H](CN4CCN(c5ccc6c(c5)C(=O)N(N5CCC(=O)NC5=O)C6=O)CC4)CC3)cc2cc1NC(=O)c1cccc(C(F)(F)F)n1 [GT-08647, N-(2-((1r,4r)-4-((4-(2-(2,4-dioxotetrahydropyrimidin-1(2H)-yl)-1,3-dioxoisoindolin-5-yl)piperazin-1-yl)methyl)cyclohexyl)-6-methoxy-2H-indazol-5-yl)-6-(trifluoromethyl) picolinamide]
9 | A (0%≤substrate protein remaining %≤80%) | COc1cc2nn([C@H]3CC[C@H](CN4C5CCC4CN(c4ccc6c(c4)C(=O)N(N4CCC(=O)NC4=O)C6=O)C5)CC3)cc2cc1NC(=O)c1cccc(C(F)(F)F)n1 [GT-08654, N-(2-((1r,4r)-4-((3-(2-(2,4-dioxotetrahydropyrimidin-1(2H)-yl)-1,3-dioxoisoindolin-5-yl)-3,8-diazabicyclo[3.2.1]octan-8-yl)methyl)cyclohexyl)-6-methoxy-2H-indazol-5-yl)-6-(trifluoromethyl) picolinamide]
10 | A (0%≤substrate protein remaining %≤80%) | COc1cc2nn([C@H]3CC[C@H](CN4CCN(c5cccc6c5C(=O)N(N5CCC(=O)NC5=O)C6=O)CC4)CC3)cc2cc1NC(=O)c1cccc(C(F)(F)F)n1 [GT-08655, N-(2-((1r,4r)-4-((4-(2-(2,4-dioxotetrahydropyrimidin-1(2H)-yl)-1,3-dioxoisoindolin-4-yl)piperazin-1-yl)methyl)cyclohexyl)-6-methoxy-2H-indazol-5-yl)-6-(trifluoromethyl) picolinamide]
11 | A (0%≤substrate protein remaining %≤80%) | COc1cc2nn([C@H]3CC[C@H](CN4CCN(c5ccc6c(c5F)C(=O)N(N5CCC(=O)NC5=O)C6=O)CC4)CC3)cc2cc1NC(=O)c1cccc(C(F)(F)F)n1 [GT-08656, N-(2-((1r,4r)-4-((4-(2-(2,4-dioxotetrahydropyrimidin-1(2H)-yl)-4-fluoro-1,3-dioxoisoindolin-5-yl)piperazin-1-yl)methyl)cyclohexyl)-6-methoxy-2H-indazol-5-yl)-6-(trifluoromethyl) picolinamide]
12 | A (0%≤substrate protein remaining %≤80%) | COc1cc2nn([C@H]3CC[C@H](CN4CCN(c5cc(F)c6c(c5)C(=O)N(N5CCC(=O)NC5=O)C6=O)CC4)CC3)cc2cc1NC(=O)c1cccc(C(F)(F)F)n1 [GT-08657, N-(2-((1r,4r)-4-((4-(2-(2,4-dioxotetrahydropyrimidin-1(2H)-yl)-7-fluoro-1,3-dioxoisoindolin-5-yl)piperazin-1-yl)methyl)cyclohexyl)-6-methoxy-2H-indazol-5-yl)-6-(trifluoromethyl) picolinamide]
13 | A (0%≤substrate protein remaining %≤80%) | COc1cc2nn([C@H]3CC[C@H](CN4CCN(C5CCN(c6ccc7c(c6)C(=O)N(N6CCC(=O)NC6=O)C7=O)CC5)CC4)CC3)cc2cc1NC(=O)c1cccc(C(F)(F)F)n1 [GT-08658, N-(2-((1r,4r)-4-((4-(1-(2-(2,4-dioxotetrahydropyrimidin-1(2H)-yl)-1,3-dioxoisoindolin-5-yl)piperidin-4-yl)piperazin-1-yl)methyl)cyclohexyl)-6-methoxy-2H-indazol-5-yl)-6-(trifluoromethyl) picolinamide]
